Assay: C(sp3)-C(sp3) bond formation by visible-light-mediated Cys desulfurisation: alanyl radical adds to terminal alkene of allylglycine (or O-allyl Ser, pentenylGly, acrylamide); TCEP 50 eq (25 mM), (Ir[dF(CF3)ppy]2(dtbpy))PF6 1 mol%, 450 nm blue LED; unprotected peptides
Conditions: 6 M Gdn.HCl, 0.1 M Na2HPO4 pH 7.5-8.0 / MeCN 9:1, 0.5 mM, 25.0 °C

CCCC[C@@H]1NC(=O)[C@H](CO)NC(=O)[C@H](CC(=O)O)NC(=O)CNC(=O)[C@H](C(C)C)NC(=O)[C@H](CCC(N)=O)NC(=O)[C@@H](NC(=O)[C@H](CC(C)C)NC(=O)[C@H](Cc2c[nH]cn2)NC(=O)[C@H](CCCNC(=N)N)NC(C)=O)CCCC[C@@H](C(=O)N[C@@H](CCCNC(=N)N)C(=O)N[C@@H](CO)C(=O)N[C@H](C(N)=O)[C@@H](C)CC)NC1=O
ring closure, isolated yield (from C=CC[C@H](NC(=O)[C@H](CC(C)C)NC(=O)[C@H](Cc1c[nH]cn1)NC(=O)[C@H](CCCNC(=N)N)NC(C)=O)C(=O)N[C@@H](CCC(N)=O)C(=O)N[C@H](C(=O)NCC(=O)N[C@@H](CC(=O)O)C(=O)N[C@@H](CO)C(=O)N[C@@H](CCCC)C(=O)N[C@@H](CS)C(=O)N[C@@H](CCCNC(=N)N)C(=O)N[C@@H](CO)C(=O)N[C@H](C(N)=O)[C@@H](C)CC)C(C)C, 26-membered ring): 23%

CC(=O)N[C@H]1CCCC[C@@H](C(N)=O)NC(=O)[C@H](CCC(=O)O)NC(=O)[C@H](Cc2ccccc2)NC(=O)[C@H](C)NC1=O [Ac-(allylGly)-Ala-Phe-Glu-Cys-NH2]
ring closure, isolated yield (from C=CC[C@H](NC(C)=O)C(=O)N[C@@H](C)C(=O)N[C@@H](Cc1ccccc1)C(=O)N[C@@H](CCC(=O)O)C(=O)N[C@@H](CS)C(N)=O, 17-membered ring): 74%

CSCC[C@@H]1NC(=O)[C@@H]2CCCN2C(=O)[C@H](CCCNC(=N)N)NC(=O)[C@@H](NC(C)=O)CCCC[C@@H](C(N)=O)NC(=O)[C@H](Cc2c[nH]cn2)NC1=O [Ac-(allylGly)-Arg-Pro-Met-His-Cys-NH2]
ring closure, isolated yield (from C=CC[C@H](NC(C)=O)C(=O)N[C@@H](CCCNC(=N)N)C(=O)N1CCC[C@H]1C(=O)N[C@@H](CCSC)C(=O)N[C@@H](Cc1c[nH]cn1)C(=O)N[C@@H](CS)C(N)=O, 20-membered ring): 48%

CC(=O)N[C@H]1CCCC[C@@H](C(N)=O)NC(=O)[C@H](C(C)C)NC(=O)[C@H](CCCNC(=N)N)NC(=O)[C@@H]2CCCN2C(=O)[C@H](Cc2c[nH]cn2)NC(=O)[C@H](CC(N)=O)NC1=O [Ac-(allylGly)-Asn-His-Pro-Arg-Val-Cys-NH2]
ring closure, isolated yield (from C=CC[C@H](NC(C)=O)C(=O)N[C@@H](CC(N)=O)C(=O)N[C@@H](Cc1c[nH]cn1)C(=O)N1CCC[C@H]1C(=O)N[C@@H](CCCNC(=N)N)C(=O)N[C@H](C(=O)N[C@@H](CS)C(N)=O)C(C)C, 23-membered ring): 32%

CC[C@H](C)[C@@H]1NC(=O)[C@H](CCCCN)NC(=O)[C@H](Cc2ccc(O)cc2)NC(=O)[C@H](CO)NC(=O)[C@H](CC(=O)O)NC(=O)[C@@H](NC(C)=O)CCCC[C@@H](C(N)=O)NC1=O [Ac-(allylGly)-Asp-Ser-Tyr-Lys-Ile-Cys-NH2]
ring closure, isolated yield (from C=CC[C@H](NC(C)=O)C(=O)N[C@@H](CC(=O)O)C(=O)N[C@@H](CO)C(=O)N[C@@H](Cc1ccc(O)cc1)C(=O)N[C@@H](CCCCN)C(=O)N[C@H](C(=O)N[C@@H](CS)C(N)=O)[C@@H](C)CC, 23-membered ring): 58%

CCCC[C@@H]1NC(=O)[C@H](CO)NC(=O)[C@H](CC(=O)O)NC(=O)CNC(=O)[C@H](C(C)C)NC(=O)[C@H](CCC(N)=O)NC(=O)[C@@H](NC(C)=O)CCCC[C@@H](C(N)=O)NC1=O [Ac-(allylGly)-Gln-Val-Gly-Asp-Ser-Nle-Cys-NH2]
ring closure, isolated yield (from C=CC[C@H](NC(C)=O)C(=O)N[C@@H](CCC(N)=O)C(=O)N[C@H](C(=O)NCC(=O)N[C@@H](CC(=O)O)C(=O)N[C@@H](CO)C(=O)N[C@@H](CCCC)C(=O)N[C@@H](CS)C(N)=O)C(C)C, 26-membered ring): 76%

CC(=O)N[C@H]1CCCC[C@@H](C(N)=O)NC(=O)[C@H](Cc2c[nH]c3ccccc23)NC(=O)[C@H](CCC(N)=O)NC(=O)[C@H](CC(C)C)NC(=O)[C@H](CCC(=O)O)NC1=O [Ac-(allylGly)-Glu-Leu-Gln-Trp-Cys-NH2]
ring closure, isolated yield (from C=CC[C@H](NC(C)=O)C(=O)N[C@@H](CCC(=O)O)C(=O)N[C@@H](CC(C)C)C(=O)N[C@@H](CCC(N)=O)C(=O)N[C@@H](Cc1c[nH]c2ccccc12)C(=O)N[C@@H](CS)C(N)=O, 20-membered ring): 37%

CC[C@H](C)[C@@H]1NC(=O)[C@@H](NC(C)=O)CCCC[C@@H](C(N)=O)NC(=O)[C@H](CCCNC(=N)N)NC(=O)[C@H](Cc2c[nH]c3ccccc23)NC1=O [Ac-(allylGly)-Ile-Trp-Arg-Cys-NH2]
ring closure, isolated yield (from C=CC[C@H](NC(C)=O)C(=O)N[C@H](C(=O)N[C@@H](Cc1c[nH]c2ccccc12)C(=O)N[C@@H](CCCNC(=N)N)C(=O)N[C@@H](CS)C(N)=O)[C@@H](C)CC, 17-membered ring): 59%

CSCC[C@@H]1NC(=O)[C@H](Cc2ccc(O)cc2)NC(=O)[C@H](CC(C)C)NC(=O)[C@@H](NC(C)=O)CCCC[C@@H](C(N)=O)NC1=O [Ac-(allylGly)-Leu-Tyr-Met-Cys-NH2]
ring closure, isolated yield (from C=CC[C@H](NC(C)=O)C(=O)N[C@@H](CC(C)C)C(=O)N[C@@H](Cc1ccc(O)cc1)C(=O)N[C@@H](CCSC)C(=O)N[C@@H](CS)C(N)=O, 17-membered ring): 69%

CC[C@H](C)[C@@H]1NC(=O)[C@H](CCCCN)NC(=O)[C@@H](NC(C)=O)CCCC[C@@H](C(N)=O)NC(=O)[C@H](Cc2ccc(O)cc2)NC(=O)[C@H](CO)NC1=O [Ac-(allylGly)-Lys-Ile-Ser-Tyr-Cys-NH2]
ring closure, isolated yield (from C=CC[C@H](NC(C)=O)C(=O)N[C@@H](CCCCN)C(=O)N[C@H](C(=O)N[C@@H](CO)C(=O)N[C@@H](Cc1ccc(O)cc1)C(=O)N[C@@H](CS)C(N)=O)[C@@H](C)CC, 20-membered ring): 64%

CC(=O)N[C@H]1CCCC[C@@H](C(N)=O)NC(=O)[C@H](CCCCN)NC(=O)[C@@H]2CCCN2C(=O)[C@H]([C@@H](C)O)NC1=O [Ac-(allylGly)-Thr-Pro-Lys-Cys-NH2]
ring closure, isolated yield (from C=CC[C@H](NC(C)=O)C(=O)N[C@H](C(=O)N1CCC[C@H]1C(=O)N[C@@H](CCCCN)C(=O)N[C@@H](CS)C(N)=O)[C@@H](C)O, 17-membered ring): 48%

CC(=O)N[C@H]1CCCC[C@@H](C(N)=O)NC(=O)[C@H](CC(=O)O)NC(=O)CNC(=O)[C@H](C(C)C)NC1=O [Ac-(allylGly)-Val-Gly-Asp-Cys-NH2]
ring closure, isolated yield (from C=CC[C@H](NC(C)=O)C(=O)N[C@H](C(=O)NCC(=O)N[C@@H](CC(=O)O)C(=O)N[C@@H](CS)C(N)=O)C(C)C, 17-membered ring): 54%

CC(=O)N[C@H]1CCCC[C@@H](C(N)=O)NC(=O)[C@H](CCC(N)=O)NC(=O)[C@H](Cc2c[nH]cn2)NC(=O)[C@H](C(C)C)NC1=O [Ac-(allylGly)-Val-His-Gln-Cys-NH2]
ring closure, isolated yield (from C=CC[C@H](NC(C)=O)C(=O)N[C@H](C(=O)N[C@@H](Cc1c[nH]cn1)C(=O)N[C@@H](CCC(N)=O)C(=O)N[C@@H](CS)C(N)=O)C(C)C, 17-membered ring): 59%

CC[C@H](C)[C@@H]1NC(=O)[C@H](CCCCN)NC(=O)[C@@H](NC(C)=O)CCCC[C@@H](C(N)=O)NC(=O)[C@H](Cc2ccc(O)cc2)NC(=O)[C@H](CO)NC1=O [Ac-Cys-Lys-Ile-Ser-Tyr-(allylGly)-NH2]
ring closure, isolated yield (from C=CC[C@H](NC(=O)[C@H](Cc1ccc(O)cc1)NC(=O)[C@H](CO)NC(=O)[C@@H](NC(=O)[C@H](CCCCN)NC(=O)[C@H](CS)NC(C)=O)[C@@H](C)CC)C(N)=O, 20-membered ring): 64%

CCCC[C@H](NC(=O)[C@@H]1CCCC[C@H](NC(=O)[C@H](C)NC(=O)[C@H](CC(C)C)NC(=O)[C@H](Cc2c[nH]cn2)NC(C)=O)C(=O)N[C@@H](C(C)C)C(=O)NCC(=O)N[C@@H](CC(=O)O)C(=O)N1)C(=O)N[C@@H](CC(=O)O)C(=O)N[C@@H](CCCNC(=N)N)C(N)=O [Ac-His-Leu-Ala-(allylGly)-Val-Gly-Asp-Cys-Nle-Asp-Arg-NH2]
ring closure, isolated yield (from C=CC[C@H](NC(=O)[C@H](C)NC(=O)[C@H](CC(C)C)NC(=O)[C@H](Cc1c[nH]cn1)NC(C)=O)C(=O)N[C@H](C(=O)NCC(=O)N[C@@H](CC(=O)O)C(=O)N[C@@H](CS)C(=O)N[C@@H](CCCC)C(=O)N[C@@H](CC(=O)O)C(=O)N[C@@H](CCCNC(=N)N)C(N)=O)C(C)C, 17-membered ring): 23%

C[C@@H]1NC(=O)CCC[C@@H](C(N)=O)NC(=O)[C@H](C)NC(=O)[C@H](Cc2ccccc2)NC1=O [Acryloyl-Ala-Phe-Ala-Cys-NH2]
ring closure, isolated yield (from C=CC(=O)N[C@@H](C)C(=O)N[C@@H](Cc1ccccc1)C(=O)N[C@@H](C)C(=O)N[C@@H](CS)C(N)=O, 15-membered ring, 1.0 h): 0%

C[C@@H]1NC(=O)[C@H](Cc2ccccc2)NC(=O)[C@H](C)NC(=O)[C@@H](N)CCCCCC[C@@H](C(N)=O)NC1=O [H-(4-pentenylGly)-Ala-Phe-Ala-Cys-NH2]
ring closure, isolated yield (from C=CCCC[C@H](N)C(=O)N[C@@H](C)C(=O)N[C@@H](Cc1ccccc1)C(=O)N[C@@H](C)C(=O)N[C@@H](CS)C(N)=O, 19-membered ring, 1.0 h): 32%
